According to article PMC4749168, “Potentiation of ΔF508- and G551D-CFTR-Mediated Cl^- Current by Novel Hydroxypyrazolines” (PLoS ONE, 2016):

Experiments:
HT-29 cells = experiment: MTS cell viability assay; type: cell-based, human; settings: 24 h, up to 10 μM
Experimental: HT-29 human colon adenocarcinoma cells were plated at a density of 1 x10^4 per cm^2on 96-well microplates. After 24 h incubation, cells were treated with hydroxypyrazolines and then incubated for 1 day. An equal amount of DMSO was added to the all control. The culture medium and the compounds were changed every 12 h. For MTS assay, the cells were reincubated with MTS for 1 hour. The soluble formazan produced by cellular reduction of MTS was quantified by measuring the absorbance at 490 nm with Infinite M200 (Tecan, Grödig, Austria) microplate reader. MTS assay was done using CellTiter 96® AQueous One Solution Cell Proliferation Assay kit (Promega, Madison, WI, USA).

ΔF508-CFTR = ΔF508-CFTR (Homo sapiens, UniProt P13569, DEL508-508); experiment: Halide-sensitive YFP microplate reader assay of CFTR potentiation, ΔF508-CFTR; type: cell-based; design: expressed in transfected cells; host or cells: Fisher rat thyroid (FRT) cells, co-expressing halide sensor YFP-H148Q/I152L; provided by Dr. Alan Verkman; settings: FRT cells rescued at 27°C, 10 μM forskolin
Sequence of ΔF508-CFTR (P13569 with tags, fused parts or gaps DEL508-508): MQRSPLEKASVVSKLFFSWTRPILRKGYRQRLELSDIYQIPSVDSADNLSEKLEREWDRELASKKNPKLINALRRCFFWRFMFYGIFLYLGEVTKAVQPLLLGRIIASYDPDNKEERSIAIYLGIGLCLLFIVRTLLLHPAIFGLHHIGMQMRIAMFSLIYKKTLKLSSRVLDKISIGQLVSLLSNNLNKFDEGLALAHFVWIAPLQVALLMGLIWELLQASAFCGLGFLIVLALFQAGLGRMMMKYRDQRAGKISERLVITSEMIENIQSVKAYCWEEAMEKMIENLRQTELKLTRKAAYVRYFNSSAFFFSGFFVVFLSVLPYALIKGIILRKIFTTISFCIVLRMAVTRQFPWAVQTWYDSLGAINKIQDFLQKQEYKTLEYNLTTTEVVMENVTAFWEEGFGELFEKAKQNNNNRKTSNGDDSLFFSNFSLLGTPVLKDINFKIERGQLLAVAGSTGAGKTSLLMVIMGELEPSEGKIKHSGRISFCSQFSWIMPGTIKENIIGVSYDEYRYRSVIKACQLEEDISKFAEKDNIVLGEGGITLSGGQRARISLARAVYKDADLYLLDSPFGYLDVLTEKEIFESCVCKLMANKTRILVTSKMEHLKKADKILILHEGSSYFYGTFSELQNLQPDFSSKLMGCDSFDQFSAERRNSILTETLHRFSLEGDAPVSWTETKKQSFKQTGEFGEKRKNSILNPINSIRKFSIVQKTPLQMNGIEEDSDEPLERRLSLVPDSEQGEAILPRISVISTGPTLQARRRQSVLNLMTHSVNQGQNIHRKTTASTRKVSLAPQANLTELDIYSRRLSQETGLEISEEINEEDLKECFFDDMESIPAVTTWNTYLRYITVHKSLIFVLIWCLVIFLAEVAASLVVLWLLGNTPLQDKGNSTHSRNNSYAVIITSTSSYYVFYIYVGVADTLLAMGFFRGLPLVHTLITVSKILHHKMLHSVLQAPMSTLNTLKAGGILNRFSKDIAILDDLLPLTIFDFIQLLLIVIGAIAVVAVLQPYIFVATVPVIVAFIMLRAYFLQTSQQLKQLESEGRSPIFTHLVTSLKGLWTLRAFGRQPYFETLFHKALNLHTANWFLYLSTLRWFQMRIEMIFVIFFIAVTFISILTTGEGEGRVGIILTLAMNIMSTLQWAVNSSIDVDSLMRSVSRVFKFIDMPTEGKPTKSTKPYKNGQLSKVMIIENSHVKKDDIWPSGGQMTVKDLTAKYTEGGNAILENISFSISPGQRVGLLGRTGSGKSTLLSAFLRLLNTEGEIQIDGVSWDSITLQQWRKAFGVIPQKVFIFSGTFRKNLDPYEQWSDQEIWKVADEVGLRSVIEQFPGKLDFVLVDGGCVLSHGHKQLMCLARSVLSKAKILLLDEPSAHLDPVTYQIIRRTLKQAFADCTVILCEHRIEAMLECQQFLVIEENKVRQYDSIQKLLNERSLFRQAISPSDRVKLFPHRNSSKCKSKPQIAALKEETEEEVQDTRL
Experimental: FRT cells expressing wild type- or ΔF508-CFTR with the halide sensor YFP-H148Q/I152L were plated in 96-well black-walled microplates (Corning Inc., Corning, NY) at a density of 2 x10^4cells per well. FRT-WT-CFTR-YFP cells were incubated for 48 h at 37°C, and FRT-ΔF508-CFTR-YFP cells were incubated for 24 h at 27°C after 24 h incubation at 37°C to rescue ΔF508-CFTR localization. Assays were done using FLUO star Omega microplate reader (BMG Labtech, Ortenberg, Germany) and MARS Data Analysis Software (BMG Labtech). Each well of a 96-well plate was washed 3 times in PBS (200 μL/wash). 100 μL PBS was added to each well. Forskolin (0.1 and 10 μM for WT- and ΔF508-CFTR, respectively) and test compounds (1 μL) were added to each well. After 10 min, 96-well plates were transferred to the microplate reader preheated to 37°C for fluorescence assay. Each well was assayed individually for CFTR-mediated I^- influx by recording fluorescence continuously (200 ms per point) for 2 s (baseline), then 100 μL of 140 mM I^- solution was added at 2 s and then YFP fluorescence was recorded for 14 s. Initial iodide influx rate was determined from the initial slope of fluorescence decrease, by nonlinear regression, following infusion of iodide.

COc1ccc(C2CC(c3ccc(O)cc3O)=NN2c2ccc(S(N)(=O)=O)cc2)c(OC)c1 (centres unmarked) [Compound 7q, 4-[3-(2,4-dihydroxyphenyl)-5-(2,4-dimethoxyphenyl)-4,5-dihydro-1H-pyrazol-1-yl] benzenesulfonamide]
Cytotoxicity (cell viability, MTS) (HT-29 cells): no cytotoxicity
EC50 (ΔF508-CFTR): 4.8 µM
